Assay results published in ChEMBL document CHEMBL1201862, “PubChem BioAssay data set” (2004).
Activity calls are given as the source filed them.

How the values were obtained:
BJ [1] = experiment: BJ-TERT fibroblast viability loss – cell-based, RAS-independent, luminescence, dose response (AID 1933); format: functional; conditions: Homo sapiens
BJ [2] = experiment: cells; format: functional, cell-based; conditions: Homo sapiens
[3] = target: T1, Mannose-6-phosphate isomerase (Homo sapiens, UniProt P34949); experiment: MPI enzyme activity inhibition – biochemical, fluorescence intensity, coupled assay, primary screen (AID 1209)
T1 sequence (P34949 whole entry): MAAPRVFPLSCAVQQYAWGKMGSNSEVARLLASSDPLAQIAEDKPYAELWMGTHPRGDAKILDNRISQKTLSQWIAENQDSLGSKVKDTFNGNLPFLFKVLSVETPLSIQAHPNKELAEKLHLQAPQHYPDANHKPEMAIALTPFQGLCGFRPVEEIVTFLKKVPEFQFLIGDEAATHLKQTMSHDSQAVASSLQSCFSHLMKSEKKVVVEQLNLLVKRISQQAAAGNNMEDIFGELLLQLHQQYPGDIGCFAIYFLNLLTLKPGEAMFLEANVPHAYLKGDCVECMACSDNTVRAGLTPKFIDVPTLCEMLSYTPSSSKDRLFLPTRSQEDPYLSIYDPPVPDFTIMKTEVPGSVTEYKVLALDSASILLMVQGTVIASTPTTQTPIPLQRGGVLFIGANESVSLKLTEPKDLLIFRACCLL

[4] = target: Bifunctional protein GlmU (Mycobacterium tuberculosis, UniProt P9WMN3); experiment: Inhibitors of Mycobacterial Glucosamine-1-phosphate acetyl transferase (GlmU). Secondary screen.; set-up: species or system Mycobacterium tuberculosis H37Rv
Bifunctional protein GlmU, sequence (P9WMN3 whole entry): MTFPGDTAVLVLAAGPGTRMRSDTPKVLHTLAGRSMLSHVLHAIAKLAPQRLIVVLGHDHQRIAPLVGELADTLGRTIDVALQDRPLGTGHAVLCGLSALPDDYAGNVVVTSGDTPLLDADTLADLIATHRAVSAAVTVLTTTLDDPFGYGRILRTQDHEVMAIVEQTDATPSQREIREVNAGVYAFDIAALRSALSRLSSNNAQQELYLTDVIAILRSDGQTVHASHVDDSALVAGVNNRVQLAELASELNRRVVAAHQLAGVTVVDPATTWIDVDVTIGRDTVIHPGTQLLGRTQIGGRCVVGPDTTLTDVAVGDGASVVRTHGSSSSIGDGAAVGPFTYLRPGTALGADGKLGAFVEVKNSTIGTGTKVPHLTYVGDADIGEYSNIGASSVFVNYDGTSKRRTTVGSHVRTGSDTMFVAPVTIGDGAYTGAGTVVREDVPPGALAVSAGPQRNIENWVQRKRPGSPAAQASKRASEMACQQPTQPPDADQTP

J774.A1 = experiment: Confirmation of image-based Screening Assay for Inhibitors of Phagocytosis. [Related pubchem assays (depositor defined):AID1029, AID1643]; format: functional, cell-based; conditions: Mus musculus
BJ [5] = experiment: BJ-TERT-LT-ST fibroblast viability loss – cell-based, RAS-independent, luminescence, dose response (AID 1935); format: functional; conditions: Homo sapiens;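 also: BJ fibroblasts immortalized with TERT plus LT and ST oncogenes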
[6] = DRD fibroblast viability loss – cell-based, non-viral oncogenic, luminescence, dose response (AID 1934); format: functional; conditions: Homo sapiens
[7] = target: T1, Mannose-6-phosphate isomerase; experiment: MPI inhibition at elevated mannose 6-phosphate – biochemical, fluorescence intensity, high mannose 6-phosphate, primary screen (AID 1220)
X-box-binding protein 1 = X-box-binding protein 1 (Homo sapiens, UniProt P17861); format: functional, Cricetulus griseus;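 also: confirmatory dose-response counter-screen serving a CHOP assay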
X-box-binding protein 1, sequence (P17861 whole entry): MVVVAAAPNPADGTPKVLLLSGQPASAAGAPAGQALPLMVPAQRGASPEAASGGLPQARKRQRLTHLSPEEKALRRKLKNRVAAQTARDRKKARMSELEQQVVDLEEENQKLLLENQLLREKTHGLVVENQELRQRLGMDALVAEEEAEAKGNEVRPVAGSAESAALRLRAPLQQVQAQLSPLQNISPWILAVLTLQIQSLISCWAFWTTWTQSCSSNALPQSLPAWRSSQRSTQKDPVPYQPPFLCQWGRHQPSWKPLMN

[8] = target: Heat shock protein HSP 90-alpha (Homo sapiens, UniProt P07900); format: functional, organism-based
BJ [9] = experiment: growth inhibition of engineered Ras-driven BJ cells – cell-based, alamar blue fluorescence, cherrypicked samples, dose response (AID 2631); format: functional; conditions: Homo sapiens;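 also: confirmatory dose-response assay in RAS-dependent BJ fibroblasts engineered with TERT, LT and ST, with cytotoxicity read by fluorescence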
[10] = Fluorescence-based cell-based high throughput dose response assay for inhibitors of the interaction of nucleotide-binding oligomerization domain containing 2 (NOD2) and the receptor-interacting serine-threonine kinase 2 (RIPK2).; format: functional; conditions: Homo sapiens
[11] = target: Eukaryotic translation initiation factor 4H (Homo sapiens, UniProt Q15056); experiment: inhibitors of translation initiation factor eIF4H – SAR follow-up (AID 435011); format: functional
[12] = target: Polyadenylate-binding protein 1 (Homo sapiens, UniProt P11940); experiment: PABP inhibition in translation initiation, SAR follow-up (AID 435018); format: functional
Polyadenylate-binding protein 1, sequence (P11940 whole entry): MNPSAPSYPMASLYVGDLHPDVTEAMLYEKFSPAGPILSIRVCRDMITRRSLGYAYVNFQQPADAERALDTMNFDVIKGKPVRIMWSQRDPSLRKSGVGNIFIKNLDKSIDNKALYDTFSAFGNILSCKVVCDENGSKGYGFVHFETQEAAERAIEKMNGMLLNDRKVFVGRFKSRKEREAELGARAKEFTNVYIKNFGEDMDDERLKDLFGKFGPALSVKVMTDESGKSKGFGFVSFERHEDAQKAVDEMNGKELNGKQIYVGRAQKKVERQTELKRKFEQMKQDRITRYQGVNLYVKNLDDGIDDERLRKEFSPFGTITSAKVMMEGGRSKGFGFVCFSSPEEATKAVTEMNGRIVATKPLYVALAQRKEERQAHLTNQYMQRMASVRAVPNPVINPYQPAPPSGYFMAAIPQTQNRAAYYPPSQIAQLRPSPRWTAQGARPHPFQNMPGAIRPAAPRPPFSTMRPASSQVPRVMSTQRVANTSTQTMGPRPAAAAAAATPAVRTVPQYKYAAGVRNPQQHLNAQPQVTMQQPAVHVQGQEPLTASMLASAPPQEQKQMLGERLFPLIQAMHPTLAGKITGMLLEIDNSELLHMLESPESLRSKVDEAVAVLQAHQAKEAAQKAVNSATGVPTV

[13] = target: T2, Dual specificity protein phosphatase 3 (Homo sapiens, UniProt P51452); experiment: SAR VHR1 absorbance Assay for In Vitro dose response studies. [Related pubchem assays (depositor defined):AID1654, AID1661, AID1878, AID1992, AID2004]
T2 sequence (P51452 whole entry): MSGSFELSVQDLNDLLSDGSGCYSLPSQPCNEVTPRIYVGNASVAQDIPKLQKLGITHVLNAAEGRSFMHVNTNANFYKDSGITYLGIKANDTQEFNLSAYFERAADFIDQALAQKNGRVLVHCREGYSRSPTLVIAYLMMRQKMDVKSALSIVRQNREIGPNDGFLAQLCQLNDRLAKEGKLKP

[14] = target: T2, Dual specificity protein phosphatase 3; experiment: SAR VHR1 Fluorescent Assay for In Vitro dose response studies. [Related pubchem assays (depositor defined):AID1654, AID1661, AID1878, AID1992, AID2004, AID2070, AID2085]; format: functional
[15] = target: T3, Tyrosine-protein phosphatase non-receptor type 7 (Homo sapiens, UniProt P35236); experiment: redox-active compounds inhibiting HePTP phosphatase – biochemical, fluorescence, mechanism study (AID 2068); format: functional
T3 sequence (P35236 whole entry): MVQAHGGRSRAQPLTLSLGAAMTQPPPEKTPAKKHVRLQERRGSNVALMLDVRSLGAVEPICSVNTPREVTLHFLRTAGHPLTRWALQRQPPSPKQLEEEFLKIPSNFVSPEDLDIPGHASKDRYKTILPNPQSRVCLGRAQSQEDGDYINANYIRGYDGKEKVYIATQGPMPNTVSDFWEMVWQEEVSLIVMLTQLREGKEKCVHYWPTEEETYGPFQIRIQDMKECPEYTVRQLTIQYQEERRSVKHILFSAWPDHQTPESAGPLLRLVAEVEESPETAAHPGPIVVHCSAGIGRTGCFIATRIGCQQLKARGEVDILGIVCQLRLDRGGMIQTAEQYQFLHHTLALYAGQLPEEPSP

[16] = target: T4, Dual specificity protein phosphatase 6 (Rattus norvegicus, UniProt Q64346); experiment: SAR analysis of inhibitors of MKP-3 - Set 2. [Related pubchem assays (depositor defined):AID1055, AID1661, AID425, AID553, AID566]; format: functional
T4 sequence (Q64346 whole entry): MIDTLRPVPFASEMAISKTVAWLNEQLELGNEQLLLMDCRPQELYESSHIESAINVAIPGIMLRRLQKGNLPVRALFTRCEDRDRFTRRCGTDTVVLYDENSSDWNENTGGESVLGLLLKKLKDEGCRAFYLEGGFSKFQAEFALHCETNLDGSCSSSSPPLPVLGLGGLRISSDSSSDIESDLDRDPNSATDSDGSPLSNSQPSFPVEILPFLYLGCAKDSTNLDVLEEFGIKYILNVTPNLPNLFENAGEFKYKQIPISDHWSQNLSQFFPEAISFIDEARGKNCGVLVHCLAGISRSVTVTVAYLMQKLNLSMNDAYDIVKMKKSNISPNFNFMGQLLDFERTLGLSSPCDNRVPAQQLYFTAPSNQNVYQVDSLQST

[17] = target: T3, Tyrosine-protein phosphatase non-receptor type 7; experiment: SAR analysis of chemical inhibitors of HePTP using a Fluorescent assay - Set 2. [Related pubchem assays (depositor defined):AID1059, AID1077, AID1661, AID2085, AID521]; format: functional
[18] = target: T2, Dual specificity protein phosphatase 3; experiment: SAR VHR1 Fluorescent Assay for In Vitro dose response studies Set 2. [Related pubchem assays (depositor defined):AID1654, AID1661, AID1878]; format: functional
[19] = target: T4, Dual specificity protein phosphatase 6; format: functional
[20] = target: Peroxisome proliferator-activated receptor gamma/Nuclear receptor coactivator 1 (Homo sapiens, UniProt P37231); experiment: (§1) TR-FRET dose response biochemical High Throughput Screening assay for agonists of the steroid receptor coactivator 1 (SRC-1) recruitment by the peroxisome proliferator-activated receptor gamma (PPAR gamma): non-selective agonists. [Related pubchem assays (depositor defined):AID1300, AID1808, AID504735, AID631]; format: protein assay
[21] = target: Peroxisome proliferator-activated receptor gamma/Nuclear receptor coactivator 3 (Homo sapiens, UniProt P37231); experiment: as §1, with “3 (SRC-3)” for “1 (SRC-1)”, “assays: 1301 (Confirmation screen.), 1048 (Primary screen.)]” for “assays (depositor defined):AID1300, AID1808, AID504735, AID631]”; format: functional
Peroxisome proliferator-activated receptor gamma/Nuclear receptor coactivator 3, sequence (P37231 whole entry): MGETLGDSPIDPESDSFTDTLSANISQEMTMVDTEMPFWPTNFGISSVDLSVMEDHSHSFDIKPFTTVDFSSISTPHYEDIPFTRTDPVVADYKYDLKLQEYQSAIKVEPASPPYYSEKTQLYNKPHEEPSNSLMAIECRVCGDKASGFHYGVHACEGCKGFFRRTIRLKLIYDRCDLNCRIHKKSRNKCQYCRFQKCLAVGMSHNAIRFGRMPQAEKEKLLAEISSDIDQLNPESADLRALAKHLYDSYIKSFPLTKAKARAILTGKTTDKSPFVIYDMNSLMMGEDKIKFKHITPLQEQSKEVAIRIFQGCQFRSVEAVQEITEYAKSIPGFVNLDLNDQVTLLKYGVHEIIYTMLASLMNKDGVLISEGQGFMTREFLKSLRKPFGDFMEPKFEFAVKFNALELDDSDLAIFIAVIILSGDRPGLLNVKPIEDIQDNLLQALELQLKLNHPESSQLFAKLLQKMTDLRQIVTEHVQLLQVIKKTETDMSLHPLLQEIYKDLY
Peroxisome proliferator-activated receptor gamma/Nuclear receptor coactivator 3, sequence (Q9Y6Q9 whole entry, further chain): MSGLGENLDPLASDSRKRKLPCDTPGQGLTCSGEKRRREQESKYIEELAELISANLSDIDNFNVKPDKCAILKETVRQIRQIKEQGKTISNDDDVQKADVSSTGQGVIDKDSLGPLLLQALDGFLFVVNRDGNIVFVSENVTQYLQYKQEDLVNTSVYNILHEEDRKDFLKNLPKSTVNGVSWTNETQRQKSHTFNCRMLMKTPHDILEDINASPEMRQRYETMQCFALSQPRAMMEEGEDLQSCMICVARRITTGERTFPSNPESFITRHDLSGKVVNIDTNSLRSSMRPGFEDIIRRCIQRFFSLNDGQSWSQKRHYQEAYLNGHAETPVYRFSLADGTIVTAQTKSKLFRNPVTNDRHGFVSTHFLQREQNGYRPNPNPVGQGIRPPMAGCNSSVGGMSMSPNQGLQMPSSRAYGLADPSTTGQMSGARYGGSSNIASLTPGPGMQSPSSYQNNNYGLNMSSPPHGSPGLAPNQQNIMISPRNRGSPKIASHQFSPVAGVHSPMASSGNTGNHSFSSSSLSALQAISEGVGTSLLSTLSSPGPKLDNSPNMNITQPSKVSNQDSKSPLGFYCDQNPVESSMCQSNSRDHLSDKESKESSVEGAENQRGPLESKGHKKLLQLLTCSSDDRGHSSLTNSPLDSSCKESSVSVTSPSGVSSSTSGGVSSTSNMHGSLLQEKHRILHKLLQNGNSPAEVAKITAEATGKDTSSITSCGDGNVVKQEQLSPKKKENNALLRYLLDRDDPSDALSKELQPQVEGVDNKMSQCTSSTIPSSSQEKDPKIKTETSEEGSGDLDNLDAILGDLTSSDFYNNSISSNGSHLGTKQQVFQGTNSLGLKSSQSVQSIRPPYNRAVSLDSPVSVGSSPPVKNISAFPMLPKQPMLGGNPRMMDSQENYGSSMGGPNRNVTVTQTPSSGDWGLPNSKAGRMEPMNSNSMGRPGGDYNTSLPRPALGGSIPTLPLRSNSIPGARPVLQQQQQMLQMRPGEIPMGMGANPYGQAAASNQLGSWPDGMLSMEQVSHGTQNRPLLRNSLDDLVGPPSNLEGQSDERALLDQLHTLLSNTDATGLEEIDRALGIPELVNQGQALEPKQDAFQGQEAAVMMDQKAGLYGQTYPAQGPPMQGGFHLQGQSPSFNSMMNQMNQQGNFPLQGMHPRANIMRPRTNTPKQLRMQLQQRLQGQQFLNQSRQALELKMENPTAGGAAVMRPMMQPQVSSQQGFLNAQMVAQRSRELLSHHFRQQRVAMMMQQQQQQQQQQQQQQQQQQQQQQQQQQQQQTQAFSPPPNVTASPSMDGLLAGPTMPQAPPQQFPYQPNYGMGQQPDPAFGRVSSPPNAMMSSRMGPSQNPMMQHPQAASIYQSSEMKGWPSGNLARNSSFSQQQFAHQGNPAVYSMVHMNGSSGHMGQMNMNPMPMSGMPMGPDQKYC

Large T antigen = Large T antigen (Simian virus 40, UniProt P03070); format: functional, Betapolyomavirus macacae;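 also: Confirmatory-stage PubChem screen for compounds that inhibit SV40 T antigen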
Large T antigen, sequence (P03070 whole entry): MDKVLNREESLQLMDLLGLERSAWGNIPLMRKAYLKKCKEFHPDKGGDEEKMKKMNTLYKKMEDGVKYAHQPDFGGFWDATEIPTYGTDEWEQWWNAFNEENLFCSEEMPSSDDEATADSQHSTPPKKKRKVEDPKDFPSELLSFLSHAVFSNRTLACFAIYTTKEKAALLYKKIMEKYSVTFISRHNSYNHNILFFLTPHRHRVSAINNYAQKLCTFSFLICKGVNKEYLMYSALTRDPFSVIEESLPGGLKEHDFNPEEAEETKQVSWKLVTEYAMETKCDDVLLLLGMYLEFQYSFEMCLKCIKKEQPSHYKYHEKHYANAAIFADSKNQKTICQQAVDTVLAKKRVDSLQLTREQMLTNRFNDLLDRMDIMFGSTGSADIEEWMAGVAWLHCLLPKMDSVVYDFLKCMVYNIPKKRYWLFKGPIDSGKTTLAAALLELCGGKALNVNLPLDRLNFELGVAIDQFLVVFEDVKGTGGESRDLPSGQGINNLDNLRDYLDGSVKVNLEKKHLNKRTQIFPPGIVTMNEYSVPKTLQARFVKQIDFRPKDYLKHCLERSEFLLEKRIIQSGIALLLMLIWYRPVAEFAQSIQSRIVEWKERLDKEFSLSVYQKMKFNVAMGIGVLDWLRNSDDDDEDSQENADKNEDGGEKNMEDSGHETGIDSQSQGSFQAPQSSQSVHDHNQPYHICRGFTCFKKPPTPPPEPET

[22] = target: Peroxisome proliferator-activated receptor gamma/Nuclear receptor coactivator 2 (Homo sapiens, UniProt P37231); experiment: TR-FRET dose response biochemical High Throughput Screening assay for agonists of the steroid receptor coactivator 2 (SRC-2) recruitment by the peroxisome proliferator-activated receptor gamma (PPAR gamma): non-selective agonists. [Related pubchem assays: 1297, 1032 ]; format: functional
[23] = protection from phage-mediated lysis, alamar blue read-out – E. coli UTI89, K1F phage, bacterial capsule biogenesis inhibitors (AID 488966); format: functional
[24] = target: T5, Replicative DNA helicase DnaB (Mycobacterium tuberculosis, UniProt P9WMR3); experiment: DnaB intein splicing inhibitors, dose response, biochemical, cell-free fluorescence (AID 449749); format: functional
T5 sequence (P9WMR3 whole entry): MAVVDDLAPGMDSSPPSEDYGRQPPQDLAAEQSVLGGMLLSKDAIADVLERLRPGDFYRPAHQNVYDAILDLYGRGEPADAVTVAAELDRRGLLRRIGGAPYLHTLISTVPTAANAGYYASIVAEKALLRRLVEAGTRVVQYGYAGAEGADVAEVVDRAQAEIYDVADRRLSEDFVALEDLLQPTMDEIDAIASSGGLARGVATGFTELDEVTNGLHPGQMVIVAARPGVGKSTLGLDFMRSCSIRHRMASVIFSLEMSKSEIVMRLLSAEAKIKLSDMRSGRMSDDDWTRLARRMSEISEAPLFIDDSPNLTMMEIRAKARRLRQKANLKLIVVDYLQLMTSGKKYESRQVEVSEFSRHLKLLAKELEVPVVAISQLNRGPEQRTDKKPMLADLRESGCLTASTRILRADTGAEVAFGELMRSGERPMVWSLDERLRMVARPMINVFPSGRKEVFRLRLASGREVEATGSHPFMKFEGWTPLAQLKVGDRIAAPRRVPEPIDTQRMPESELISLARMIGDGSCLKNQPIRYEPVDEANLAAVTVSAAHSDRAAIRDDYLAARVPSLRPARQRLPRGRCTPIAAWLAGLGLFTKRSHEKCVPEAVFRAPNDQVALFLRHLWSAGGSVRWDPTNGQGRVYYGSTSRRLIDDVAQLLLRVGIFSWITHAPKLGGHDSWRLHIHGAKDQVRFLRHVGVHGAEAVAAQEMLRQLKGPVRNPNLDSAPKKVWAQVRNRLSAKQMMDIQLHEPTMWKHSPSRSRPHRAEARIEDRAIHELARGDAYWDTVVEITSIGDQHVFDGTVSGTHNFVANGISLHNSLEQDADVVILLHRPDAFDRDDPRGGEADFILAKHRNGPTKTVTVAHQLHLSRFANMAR

[25] = target: T6, Endoribonuclease toxin MazF (Escherichia coli K-12, UniProt P0AE70); experiment: activation of MazEF endoribonuclease cleavage – biochemical, fluorescence, single-stranded RNA substrate, uHTS hits, dose response (AID 588481); format: functional
T6 sequence (P0AE70 whole entry): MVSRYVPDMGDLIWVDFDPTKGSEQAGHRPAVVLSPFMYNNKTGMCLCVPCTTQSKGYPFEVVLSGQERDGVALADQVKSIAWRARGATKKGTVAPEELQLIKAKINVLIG

Vero = experiment: viability of Vero cells under compound – cytotoxicity control for flavivirus capping enzyme inhibitors (AID 588742); format: functional; conditions: Chlorocebus sabaeus
Protein RecA = target: T7, Protein RecA (Mycobacterium tuberculosis, UniProt P9WHJ3); experiment: Fluorescence Cell-Free Homogeneous Dose Retest to Identify Inhibitors of RecA-Intein Splicing Activity. [Related pubchem assays (depositor defined):AID2097, AID2223, AID489010, AID492950]; format: functional
T7 sequence (P9WHJ3 whole entry): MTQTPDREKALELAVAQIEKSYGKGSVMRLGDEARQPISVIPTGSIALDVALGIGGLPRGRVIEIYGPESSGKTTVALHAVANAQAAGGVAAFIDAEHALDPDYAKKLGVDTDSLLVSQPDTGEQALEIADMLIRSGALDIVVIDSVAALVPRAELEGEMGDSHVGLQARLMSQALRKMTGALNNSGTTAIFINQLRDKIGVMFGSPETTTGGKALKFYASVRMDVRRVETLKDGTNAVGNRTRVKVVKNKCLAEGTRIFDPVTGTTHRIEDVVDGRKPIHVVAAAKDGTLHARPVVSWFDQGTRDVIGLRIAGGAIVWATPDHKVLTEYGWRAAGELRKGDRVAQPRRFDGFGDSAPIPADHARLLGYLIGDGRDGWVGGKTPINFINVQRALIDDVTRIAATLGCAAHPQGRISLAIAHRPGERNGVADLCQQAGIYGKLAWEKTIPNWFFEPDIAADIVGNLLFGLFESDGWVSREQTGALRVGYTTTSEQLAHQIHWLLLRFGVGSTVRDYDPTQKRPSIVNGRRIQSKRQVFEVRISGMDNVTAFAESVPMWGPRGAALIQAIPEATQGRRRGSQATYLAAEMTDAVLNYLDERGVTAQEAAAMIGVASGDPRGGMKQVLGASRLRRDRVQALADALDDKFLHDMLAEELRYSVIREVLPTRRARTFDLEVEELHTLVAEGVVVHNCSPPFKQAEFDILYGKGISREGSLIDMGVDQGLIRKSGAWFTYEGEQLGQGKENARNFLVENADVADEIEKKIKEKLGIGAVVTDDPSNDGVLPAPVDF

[26] = target: T6, Endoribonuclease toxin MazF; experiment: substrate-only fluorescence increase artefacts – biochemical, single-stranded RNase substrate, counter-screen for MazEF activator project, dose response (AID 588502); format: functional

Structure (SMILES): CC1=CC(=O)C=C(C)C1=NOS(=O)(=O)c1ccccc1
- EC50 (BJ [1]): 4.5 µM (active)
- EC50 (BJ [2]): 4.78 µM (active)
- IC50 [3]: 14.4 µM (active)
- IC50 [4]: 165 µM (active)
- IC50 (J774.A1): 0.47 µM (active)
- EC50 (BJ [5]): 5.67 µM (inconclusive)
- EC50 [6]: 7.26 µM (active)
- IC50 [7]: 47.3 µM (active)
- Absolute IC50 (XBP1) (X-box-binding protein 1): 10 µM
- AC50 [8]: 0.928 µM (active)
- EC50 (BJ [9]): 1.35 µM (inconclusive)
- IC50 [10]: 5.52 µM (active)

Structure (SMILES): O=C(Nc1ccccc1)C1CCN(C(=O)c2cccs2)CC1
- IC50 [11]: 21.4 µM (active)
- IC50 [12]: 7.49 µM (active)

Structure (SMILES): CCOc1ccc(-n2c(N)c(C(=O)N3CCN(C)CC3)sc2=S)cc1
- IC50 [13]: > 100 µM (inactive)
- IC50 [14]: > 99 µM (inactive)
- IC50 [15]: > 100 µM (inactive)
- IC50 [16]: > 100 µM (inactive)
- IC50 [17]: > 100 µM (inactive)
- IC50 [18]: > 100 µM (inactive)
- IC50 [19]: > 99 µM (inactive)

Structure (SMILES): CC(=O)Oc1c(/C=C(\C#N)C(N)=O)[nH]c2ccccc12
- EC50 [20]: 20.5 µM (inactive)
- EC50 [21]: > 79.4 µM (not active)
- IC50 (Large T antigen): 22.8 µM (active)
- EC50 [22]: 22.6 µM (not active)
- IC50 [23]: > 300 µM (active)
- AC50 [24]: > 380 µM (inconclusive)
- EC50 [25]: > 99 µM (inactive)
- CC50 (Vero): > 40 µM (active)
- EC50 (Protein RecA): 0.0314 µM (active)
- EC50 [26]: > 99 µM (inactive)
